Reference: patent US8461349B2, “Fungicidal active substance combinations containing trifloxystrobin” (Bayer CropScience AG, priority 2001, dated 2013)
Several values for one entry are separate records, joined by “and”; a condition that tells them apart may be missing. Equal values may be shown once.

Columns and labels:
Type in all cases: in vivo
[1] = test system: caterpillars of the army worm (Spodoptera frugiperda); test: Spodoptera frugiperda test (cabbage leaves dipped)
Procedure: (§1) • Solvent: 7 parts by weight of dimethylformamide • Emulsifier: 2 parts by weight of alkylaryl polyglycol ether
(§2) To produce a suitable preparation of active compound, 1 part by weight of active compound is mixed with the stated amounts of solvent and emulsifier, and the concentrate is diluted with emulsifier-containing water to the desired concentration.
Cabbage leaves (Brassica oleracea) are treated by being dipped into the preparation of active compound of the desired concentration and are populated with caterpillars of the army worm (Spodoptera frugiperda) while the leaves are still moist.
(§3) After the desired period of time, the kill in % is determined. 100% means that all caterpillars have been killed; 0% means that none of the caterpillars have been killed. The kill rates that have been determined are evaluated using Colby's formula.

[2] = test system: larvae of the mustard beetle (Phaedon cochleariae); test: Phaedon larvae test (cabbage leaves dipped)
Procedure: as §1, §2
Cabbage leaves (Brassica oleracea) are treated by being dipped into the preparation of active compound of the desired concentration and are populated with larvae of the mustard beetle (Phaedon cochleariae) while the leaves are still moist.
After the desired period of time, the kill in % is determined. 100% means that all beetle larvae have been killed; 0% means that none of the beetle larvae have been killed. The kill rates that have been determined are evaluated using Colby's formula.

[3] = test system: cotton aphid (Aphis gossypii); test: Aphis gossypii test (cotton leaves dipped)
Procedure: as §1
To produce a suitable preparation of active compound, 1 part by weight of active compound is mixed with the stated amounts of solvent and emulsifier, and the concentrate is diluted with water to the desired concentrations.
Cotton leaves (Gossypium hirsutum) which are heavily infested by the cotton aphid (Aphis gossypii) are treated by being dipped into the preparation of active compound of the desired concentration.
(§4) After the desired period of time, the kill in % is determined. 100% means that all aphids have been killed; 0% means that none of the aphids have been killed. The kill rates that have been determined are evaluated using Colby's formula.

[4] = test system: caterpillars of the diamond back moth (Plutella xylostella, sensitive strain); test: Plutella test (cabbage leaves dipped)
Procedure: as §1, §2
Cabbage leaves (Brassica oleracea) are treated by being dipped into the preparation of active compound of the desired concentration and are populated with caterpillars of the diamond back moth (Plutella xylostella, sensitive strain) while the leaves are still moist.
as §3

[5] = test system: green peach aphid (Myzus persicae); test: Myzus test (cabbage leaves dipped)
Procedure: as §1, §2
Cabbage leaves (Brassica oleracea) which are heavily infested by the green peach aphid (Myzus persicae) are treated by being dipped into the preparation of active compound of the desired concentration.
as §4

Row | Compound | Kill rate in % after 3^d ([1]; 4 ppm) [%] | Kill rate in % after 3^d ([2]; 4 ppm) [%] | Kill rate in % after 6^d ([5]; 0.16 ppm) [%] | Kill rate in % after 6^d ([5]; 4 ppm) [%] | Kill rate in % after 6^d ([3]; 0.8 ppm) [%] | Kill rate in % after 6^d ([5]; 0.8 ppm) [%] | other results
1 | C/C(=N\C#N)N(C)Cc1ccc(Cl)nc1 [acetamiprid (IV)] | 65 | 5 | 20 |  |  |  | Kill rate in % after 1^d ([3]; 0.16 ppm): 25%; Kill rate in % after 3^d ([4]; 4 ppm): 0%
2 | CON=C(C(=O)OC)c1ccccc1CO/N=C(\C)c1cccc(C(F)(F)F)c1 [trifloxystrobin (I), methyl 2-[α-{[(α-methyl-3-trifluoromethylbenzyl)imino]oxy}-o-tolyl]-glyoxylate O-methyl oxime] |  |  |  | 0 |  |  | Kill rate in % after 3^d ([1]; 100 ppm): 0% and 5%; Kill rate in % after 6^d ([1]; 100 ppm): 0%; Kill rate in % after 3^d ([2]; 100 ppm): 0% and 5%; Kill rate in % after 1^d ([3]; 4 ppm): 0%; Kill rate in % after 6^d ([3]; 4 ppm): 0%; Kill rate in % after 1^d ([3]; 20 ppm): 0%; Kill rate in % after 6^d ([3]; 20 ppm): 0%; Kill rate in % after 3^d ([4]; 100 ppm): 0%; Kill rate in % after 6^d ([5]; 20 ppm): 0%; Kill rate in % after 6^d ([5]; 100 ppm): 10%
3 | O=[N+]([O-])/N=C1\NCCN1Cc1ccc(Cl)nc1 [imidacloprid (II), 1-[(6-chloro-3-pyridinyl)methyl]-N-nitro-2-imidazolidineimine] | 0 | 35 | 25 |  |  |  | Kill rate in % after 6^d ([3]; 0.16 ppm): 25%
4 | CN/C(=N\[N+](=O)[O-])NCC1CCOC1 (stereo not shown) [dinotefuran (VIII)] |  | 5 |  | 0 | 0 |  | Kill rate in % after 6^d ([1]; 4 ppm): 70%
5 | N#C/N=C1\SCCN1Cc1ccc(Cl)nc1 [thiacloprid (III)] | 0 | 10 |  |  | 55 | 85 | 
6 | CN/C(=N\[N+](=O)[O-])NCc1cnc(Cl)s1 [chlothianidin (VII)] | 85 | 30 |  |  |  | 95 | 
